Experimental data reported in ChEMBL document CHEMBL1125508.
Positions count from the first letter of the chain named.

How the values were obtained:
[1] = tested on: T1, Dihydrofolate reductase (Escherichia coli), P0ABQ4 [T46A]
T1 sequence (whole entry): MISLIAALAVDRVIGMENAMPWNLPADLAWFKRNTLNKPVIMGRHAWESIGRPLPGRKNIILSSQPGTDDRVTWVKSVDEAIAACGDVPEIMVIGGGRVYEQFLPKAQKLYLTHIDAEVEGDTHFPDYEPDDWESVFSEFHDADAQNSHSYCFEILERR

[2] = tested on: T2, Dihydrofolate reductase (Escherichia coli), P0ABQ4 [T46S]
T2 sequence (whole entry): T1 sequence (whole entry) with A46S

[3] = molecular target: T3, Dihydrofolate reductase (Escherichia coli) (UniProt P0ABQ4)
T3 sequence (whole entry): T1 sequence (whole entry) with A46T
Description: Dissociation rate constant of compound for wild type Escherichia coli dihydrofolate reductase

[4] = tested on: T4, Dihydrofolate reductase (Escherichia coli), P0ABQ4 [T46N]
T4 sequence (whole entry): T1 sequence (whole entry) with A46N

[5] = molecular target: T3, Dihydrofolate reductase (Escherichia coli); remark: listed apart in the source
Description: Rate of hydride transfer (E-N) of compound for wild type Escherichia coli dihydrofolate reductase

Row | SMILES | k off [1] [s⁻¹] | k off [2] [s⁻¹] | k off [3] [s⁻¹] | k off [4] [s⁻¹] | Rate of hydride transfer [5] [s⁻¹]
1 | NC(=O)c1ccc[n+]([C@@H]2O[C@H](COP(=O)([O-])OP(=O)(O)OC[C@H]3O[C@@H](n4cnc5c(N)ncnc54)[C@H](OP(=O)(O)O)[C@@H]3O)[C@@H](O)[C@H]2O)c1 | 28 | 60 | 3.5 | 56 | –
2 | Nc1nc(O)c2c(n1)NCC(CNc1ccc(C(=O)N[C@@H](CCC(=O)O)C(=O)O)cc1)N2 (stereo not given in full) | – | – | – | – | 950
3 | Nc1nc(=O)c2c([nH]1)NCC(CNc1ccc(C(=O)N[C@@H](CCC(=O)O)C(=O)O)cc1)=N2 | – | – | 22 | – | –
4 | NC(=O)c1ccc[n+]([C@H]2O[C@@H](COP(=O)([O-])OP(=O)(O)OC[C@H]3O[C@@H](n4cnc5c(N)ncnc54)[C@H](OP(=O)(O)O)[C@@H]3O)[C@H](O)[C@@H]2O)c1 | 274 | 230 | 200 | 253 | –
